Experimental data taken from patent publication US20250230472A1, “EXTRACTION OF ALKANOIC ACIDS” (priority 2018, published 2025).

Test: Distribution coefficient of carboxylic acids, water / 20% TAPO in Fragoltherm, two-phase co-culture
Format: physicochemical
Details: water and 20% TAPO in Fragoltherm, pH 6.6, after 67 h cultivation at 37° C.
Protocol: The bacterium Clostridium kluyveri was cultivated in a co culture with Clostridium autoethanogenum for the biotransformation of ethanol and acetate to medium chain fatty acids. For the inSitu extraction of the produced acids the aqueous phase was overlayed with a mixture of Fragoltherm Q-32-N with trialkylphosphineoxide (TAPO). All cultivation steps were carried out under anaerobic conditions, the preculture in a stainless steel bubble column loop reactor and the main culture in a pressure-resistant glass bottle that can be closed airtight with a butyl rubber stopper.
The aqueous phase was then overlayed with 20 ml anaerobisized extracting agent (20% trialkylphosphineoxid (TAPO) in Fragoltherm Q-32-N). The bottle with the two-layer phases was then cultivated at 37° C., 150 rpm and with a gas atmosphere of 10% H2 and 90% N2 in an open water bath shaker for 67 h. The gas atmosphere in the bottle was flushed once a day for 10 min with pure N2.
During cultivation several 5 mL samples from both, the aqueous and the organic phase, were taken to determinate OD600 nm, pH and product formation. The determination of the product concentrations in the aqueous phase was performed by semiquantitative 1H-NMR spectroscopy and high performance liquid chromatography (HPLC) and in the organic phase by semiquantitative 1H-NMR spectroscopy and gas chromatography (GC). […]

SMILES	distribution coefficient K(D)
CCCCCC(=O)O [hexanoic acid]	4.33
CCCCCCCC(=O)O [octanoic acid]	108
